Experiment [1] concerns osteoclasts cultured on bone slices. The experiment can be described thus: In vitro bone resorption assay (osteoclasts on bovine bone slices, CrossLaps). The experiment is classed as cell-based, rat. To be noted: for Effect on bone resorption / bone resorbing activity of mature osteoclasts, in words: lanthanum (III) ion = any of the concentrations tested (100-15000 ng/ml), bafilomycin Al 10 nM; for Bone resorption: significance of activation/inhibition vs baseline. The method, boiled down:
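Osteoclasts from long bones of 1-day-old rat pups were cultured on bovine cortical bone slices, with compound added at culture start, for 72 h at 37 °C. Resorption was measured as collagen cross-links (CrossLaps) released into the medium per TRAP-positive multinuclear cell, expressed relative to the baseline group mean.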

The subject of a further experiment is mature osteoblasts. The experiment can be described thus: In vitro bone formation assay (calcium deposition into bone nodules). To be noted: for Effect on bone formation activity of mature osteoblasts, in words: lanthanum (III) / lanthanum (III) ion = all concentrations tested, 100 to 15,000 ng/ml, 17-estradiol 10^−10M; for Bone formation: significance of activation/inhibition vs baseline. Type of experiment: cell-based, mouse. A digest of the protocol:
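Calcium deposited into bone nodules during culture was released by HCl extraction and complexed with o-cresol-phthalein-complexon, read at 570 nm. Absolute calcium (mmol/L) from a calibrated standard. Lanthanum carbonate tested.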

Experiment [2] has as its system mouse bone marrow derived osteoprogenitor cells. The experiment can be described thus: In vitro osteoblast differentiation assay (cellular alkaline phosphatase). The experiment is classed as cell-based. To be noted: for Osteoblast differentiation: significance of activation/inhibition vs baseline. The method, boiled down: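 Mouse bone marrow osteoprogenitors cultured, then test substances added at start of estrogen-free secondary culture and at each medium change. ALP measured colorimetrically (p-nitrophenylphosphate, pH 9.7, OD 405 nm) and normalised to protein. Reported as specific ALP relative to baseline-group mean.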

The mark [3] stands for this setting: second bone resorption assay, relative to mean of baseline group, 72 hours, LA number = ng/ml lanthanum, Control = Baseline+10 nM bafilomycin Al.
Where [4] appears, read: first bone formation assay, calcium released from bone nodules after HCl extraction, LA number = ng/ml lanthanum, Control = Baseline+10^−10M 17β-estradiol.
[5] abbreviates: preliminary bone formation assay, calcium released from bone nodules after HCl extraction, LA number = ng/ml lanthanum, Control = Baseline+10^−10M 17β-estradiol.
[6] abbreviates: second bone formation assay, calcium released from bone nodules after HCl extraction, LA number = ng/ml lanthanum, Control = Baseline+10^−10M 17β-estradiol.
[7] abbreviates: LA number = ng/ml lanthanum, lanthanum (III) ion = 100-15000 ng/ml, 17-estradiol 10^−10 M.
The mark [8] stands for this setting: first osteoblast differentiation assay, relative to mean of baseline group, 8 days, LA number = ng/ml lanthanum, Control = Baseline+10^−10 M 17-estradiol.
The mark [9] stands for this setting: preliminary osteoblast differentiation assay, relative to mean of baseline group, 8 days, LA number = ng/ml lanthanum, Control = Baseline+10^−10 M 17-estradiol.
The mark [10] stands for this setting: second osteoblast differentiation assay, relative to mean of baseline group, 8 days, LA number = ng/ml lanthanum, Control = Baseline+10^−10 M 17-estradiol.
The mark [11] stands for this setting: LA number = ng/ml lanthanum, listed as lanthanum (III) ion.

“And” between values parts separate entries of the source, which are not always exact repeats. Identical values can stand only once. “Also recorded” adds a separate entry of the source.

As to `O.O.O.O.O=C([O-])[O-].O=C([O-])[O-].O=C([O-])[O-].[La+3].[La+3]` [LA 15000, lanthanum carbonate tetrahydrate], in experiment [1] (LA number = ng/ml lanthanum), the “Effect on bone resorption / bone resorbing activity of mature osteoclasts, in words” value is “slight decrease”. Besides, the “Relative medium CrossLaps amounts per osteoclast, replicates 1-6” value in experiment [1] (first bone resorption assay, relative to mean of baseline group, 72 hours, LA number = ng/ml lanthanum in culture medium, Control = Baseline+10 nM bafilomycin Al) was 0.57 (2×) and 0.58 and 0.96 and 2.53 and 1.11. Moreover, the “Relative medium CrossLaps amounts per osteoclast, Mean ± SD” value in experiment [1] (first bone resorption assay, relative to mean of baseline group, 72 hours, LA number = ng/ml lanthanum, Control = Baseline+10 nM bafilomycin Al) is given as 1.05 ± 0.76. Besides, in experiment [1] (setting [3]), the “Relative medium CrossLaps amounts per osteoclasts, Mean ± SD” value amounted to 0.63 ± 0.29; the “Relative medium CrossLaps amounts per osteoclasts, replicates 1-6” value is 0.29 and 1.08 and 0.62 and 0.87 and 0.47 and 0.45. Also, in experiment [1] (tables 1 and 2 combined, number 12, LA number = ng/ml lanthanum, Control = Baseline+10 nM bafilomycin Al), the “Combined results on bone resorption (relative medium CrossLaps per osteoclast), Mean ± SD” value worked out at 0.84 ± 0.59. In the experiment with mature osteoblasts (LA number = ng/ml lanthanum), the “Effect on bone formation activity of mature osteoblasts, in words” value is given as “best responses”. Moreover, in the experiment on mature osteoblasts (setting [4]), the “Calcium deposition, Mean ± SD” value was determined as 1.29 ± 0.21 mmol/L; the “Calcium deposition, replicates 1-6” value is 1.46 mmol/L and 1.42 mmol/L and 1.56 mmol/L and 1.11 mmol/L (2×) and 1.08 mmol/L. For the same compound, in the experiment on mature osteoblasts (setting [5]), the “Calcium deposition, Mean ± SD” value is 0.89 ± 0.66 mmol/L; the “Calcium deposition, replicates 1-4” value is 1.48 mmol/L and 0.16 mmol/L and 0.50 mmol/L and 1.41 mmol/L. Further, in the experiment on mature osteoblasts (setting [6]), the “Calcium deposition, Mean ± SD” value is on record as 1.40 ± 0.21(* mmol/L; the “Calcium deposition, replicates 1-8” value is 1.62 mmol/L and 1.18 mmol/L and 1.21 mmol/L. Moreover, the “Combined results on bone formation activity of mature osteoblasts (calcium released), Mean ± SD” value with mature osteoblasts (tables 13 and 14 combined, number 14, LA number = ng/ml lanthanum, Control = Baseline+10^−10M 17β-estradiol) turned out to be 1.35 ± 0.21 mmol/L. Also, the “Effect on osteoblast differentiation, in words” value in experiment [2] (setting [7]) was “inhibited”. Besides, in experiment [2] (setting [8]), the “Relative specific activities of intracellular alkaline phosphatase, Mean ± SD” value is on record as 0.40 ± 0.07(***); the “Relative specific activities of intracellular alkaline phosphatase, replicates 1-8” value was 0.39 and 0.35 and 0.43. In experiment [2] (setting [9]), the “Relative specific activities of intracellular alkaline phosphatase, Mean ± SD” value was 0.50 ± 0.03(***); the “Relative specific activities of intracellular alkaline phosphatase, replicates 1-4” value was 0.51 and 0.49 and 0.47 and 0.54. For the same compound, in experiment [2] (setting [10]), the “Relative specific activities or intracellular alkaline phosphatase, Mean ± SD” value was 0.28 ± 0.07(***); the “Relative specific activities or intracellular alkaline phosphatase, replicates 1-6” value is 0.27 and 0.13 and 0.33 and 0.32 and 0.29 and 0.31. For the same compound, the “Combined results on osteoblast differentiation (relative specific ALP activity), Mean ± SD” value in experiment [2] (tables 8-10 combined, number 18, LA number = ng/ml lanthanum, Control = Baseline+10^−10 M 17-estradiol) is reported as 0.38 ± 0.11 (***).

On to `O.O.O.O.O=C([O-])[O-].O=C([O-])[O-].O=C([O-])[O-].[La+3].[La+3]` [LA, lanthanum carbonate tetrahydrate], for which the “Effect on amount of CrossLaps released into the culture medium or on the osteoclast number, in words” value in experiment [1] (100-15000 ng/ml lanthanum) is listed as “no significant effect”. Further, the Bone resorption in experiment [1] (Dose 100 ng/ml), in experiment [1] (Dose 500 ng/ml), in experiment [1] (Dose 1000 ng/ml), in experiment [1] (Dose 5000 ng/ml) and in experiment [1] (Dose 15000 ng/ml) was 0 each time. The “Effect on bone resorption / bone resorbing activity of mature osteoclasts, in words” value in experiment [1] (LA number = ng/ml lanthanum, listed as lanthanum) is given as “Some inhibition of bone resorption”; in experiment [1] (setting [11]), “no statistically significant effects”. For the same compound, the Bone formation result is “++ (two characters (++ or −−) a p-value between 0.01 and 0.001)” in the experiment with mature osteoblasts (Dose 100 ng/ml); “+++ (three characters (+++ or −−−) a p-value <0.001)” in the experiment on mature osteoblasts (Dose 500 ng/ml); “+++ (three characters (+++ or −−−) a p-value <0.001)” with mature osteoblasts (Dose 1000 ng/ml); “+++ (three characters (+++ or −−−) a p-value <0.001)” in the experiment with mature osteoblasts (Dose 5000 ng/ml); “+++ (three characters (+++ or −−−) a p-value <0.001)” with mature osteoblasts (Dose 15000 ng/ml). Moreover, the “Effect on bone formation activity of mature osteoblasts, in words” value in the experiment on mature osteoblasts (LA number = ng/ml lanthanum, listed as lanthanum (III)) is reported as “Enhanced bone formation”; in the experiment with mature osteoblasts (setting [11]) it was “highly significant activation; also recorded: powerful stimulator of the bone formation activity of mature osteoblasts”. In addition, the “Effect on osteoblast differentiation, in words” value is given as “stimulate osteoblast differentiation” in experiment [2] (100 ng/ml lanthanum) and “clear dose-dependent response” in experiment [2] (setting [7]). Further, the Osteoblast differentiation result in experiment [2] (Dose 100 ng/ml) was “+ (One character (+ or −) means a p-value between 0.05 and 0.01)”; in experiment [2] (Dose 500 ng/ml), 0; in experiment [2] (Dose 1000 ng/ml), 0; in experiment [2] (Dose 5000 ng/ml), “− − −”; in experiment [2] (Dose 15000 ng/ml), “− − −”.
